Here are results for four compounds from US11547722B2, “Bactericides and antifungal agents” (priority 2017, dated 2023).

≈ marks a conversion by molar mass, not a printed value. Read-outs that look alike come from different tables or passages of the source. Where only a bound is given, the exact number is not on record here.

Data set [1] is described as follows: Aqueous solubility of metal sulfides without and with solubilizing additive. The procedure: Mix the 90 mL of the SO4Cu solution with 10 mL of the Na2S solution. […] Separate it by filtration.
Place this precipitate in 100 mL of water in a stirred container.
With constant stirring, drop a very concentrated solution of NH3 into the water very slowly.
Mix the 97 mL of the NO3Ag solution with 3 mL of the Na2S solution. […] Separate it by filtration.
With constant stirring, drop very slowly a concentrated solution of ammonium citrate (NH4)5(C6H4O7)2H3.
Dissolve 77 mg of Cl3Au in 95 mL of water. Mix the 95 mL of the Cl3Au solution with 5 mL of the Na2S solution. […] Separate it by filtration.
While stirring constantly, drop a very concentrated solution of potassium dichromate very slowly.

Data set [2] deals with MSSA (Meticillin Sensitive Staphylococcus aureus, ATCC 29213). Put plainly: MIC test on MSSA bacteria (serial two-fold dilution, 96-well plate).
The test system of data set [3] is MRSA (Meticillin Resistant Staphylococcus aureus, ATCC 43300). Put plainly: MIC test on MRSA bacteria (serial two-fold dilution, 96-well plate).
[4] abbreviates: aqueous solutions, 24 h at 37° C.

For copper sulfide [SCu], in data set [1], the “aqueous concentration in Cu reached” value was “at least 0.2 g.l^−1”, the “aqueous concentration of Cu reached” value was no less than 0.2 g/L, the “maximum concentration in aqueous solution” value was 0.33 mg/L and the “maximum concentration in water” value worked out at 0.33 mg/L.
For `O=S(=O)([O-])[O-].[Cu+2]` [V, copper sulfate], the “MIC MSSA” value in data set [2] (setting [4]) worked out at 78 µg/mL. In addition, in data set [3] (setting [4]), the “MIC MRSA” value fell in the range of 78 to 157 µg/mL.
For the compound `Cc1onc(-c2ccccc2)c1C(=O)N[C@@H]1C(=O)N2[C@@H]1SC(C)(C)[C@@H]2C(=O)O` [Oxacilline, reference compound], the MIC (usually the lowest concentration that inhibits growth of the organism) in data set [2] (Staphylococcus aureus, 24 h, read-out: MIC MSSA) was 0.25 µg/mL (≈ 0.623 µM); in data set [3] (Staphylococcus aureus, 24 h, read-out: MIC MRSA), 256 µg/mL (≈ 638 µM).
In the case of `[Au+3].[Au+3].[S-2].[S-2].[S-2]` [S3Au2, gold sulfide], the “aqueous Au concentration reached” value in data set [1] (addition of potassium dichromate alone or an equimolar mixture of potassium dichromate and ammonia) is “at least 0.2 g/l”. The “aqueous concentration in Au reached” value in data set [1] (addition of potassium dichromate, or potassium dichromate and ammonia, Example 3) was “at least 0.2 g.l^−1”. In addition, the “maximum concentration in aqueous solution” value in data set [1] (without additive) is recorded as “undetectable”. Also, the “maximum concentration in water” value in data set [1] (without additive, Examples 1 and 3) is recorded as “undetectable”.
